Data as given in US20190119504A1 (Dow Global Technologies LLC, priority 2016, published 2019).

How the values were obtained:
Chlorella sp. ATCC 7516 = experiment: Algal efficacy testing of dry paint film, modified ASTM 5589; assay type: cell-based
Method: (§1) These paints were then diluted with a biocide free acrylic/silicone based paint and mixed to prepare targeted concentrations of biocide combinations for the testing. The total biocides concentrations obtained were 125, 250, 500, 1000, 2000 and 5000 ppm. After biocides addition or dilution, the paints were mixed 90 seconds with the horse power shaker (AXEL 75M3372/Agitateur SO-10MI) until uniformity was achieved. […] After one day, the paints were applied to Schleicher & Schuell filter paper at 280 μm wet film thickness and dried for 3 days at room temperature avoiding direct exposure to sunlight. […] This sample size allowed for an agar border when the sample disc was placed into the well of the test plate.
Algal efficacy was tested according to modified ASTM 5589 which is a standard accelerated test method for determining resistance of various coatings (including paints) to algal defacement. To accommodate for high-throughput screening, this method was scaled down from petri plates to 6-well plates. Bold Modified Basal Freshwater Nutrient Solution was used as growth medium for the algal culture and Bold's agar was used for the efficacy testing. A single coupon was placed with a pair of sterile forceps at the center of the agar plug (on top) with the painted surface facing upwards. The algal inoculum was prepared by diluting an exponentially growing culture of Chlorella sp. to 1×10^6 cfu/ml.
Each well that contains a tested coupon was inoculated with 1750 μl of algal suspension (1×10^6 cfu/ml) making sure that the whole surface (paint film as well as the agar surrounding it) was evenly covered. The plates were incubated at room temp (21° C.-25° C.) with cyclic exposure to 14 hours fluorescent light followed by 10 hours darkness, for a period of three weeks.
(§2) The SI is calculated based on F. C. Kull et.
SI=Qa/QA+Qb/QB • Qa=the concentration of Antimicrobial A in the blend • QA=the concentration of Antimicrobial A as the only biocide • Qb=the concentration of Antimicrobial B in the blend • QB=the concentration of Antimicrobial B as the only antimicrobial […]

[1] = tested on: Aspergillus niger DSMZ 1957; experiment: Fungal efficacy testing of dry paint film, modified ASTM 5590; assay type: cell-based; settings: A. niger 1957, three weeks
Method: as §1
ASTM 5590 is a standard accelerated test method for determining resistance of various coatings (including paints) to fungal defacement. To accommodate for high-throughput screening, this method was scaled down from petri plates to 6-well plates. […] A single coupon was placed with a pair of sterile forceps at the center of the agar plug (on top) with the painted surface facing upwards.
as §2
SI=Qa/QA+Qb/QB • Qa=the concentration of Antimicrobial A in the blend • QA=the concentration of Antimicrobial A as the only biocide • Qb=the concentration of Antimicrobial B in the blend • QB=the concentration of Antimicrobial B as the only antimicrobial
SI value of <1 in the formula indicates a synergism of the blended biocides exists.

Row | Structure (SMILES) | inhibition at 5000 ppm (Chlorella sp. ATCC 7516; 504 h, total conc 5000 ppm, three weeks, color intensity vs blank) | Total conc, ppm (concentration used as minimum inhibitory concentration for SI; pass level 75% inhibition) (Chlorella sp. ATCC 7516; total active ingredient in liquid paint, dry film, three weeks) | Total conc, ppm (concentration used as minimum inhibitory concentration for SI; pass level 75% inhibition; where pass not reached, concentration tested) ([1]; total active ingredient in liquid paint, dry film) | inhibition at 2000 ppm ([1]; Aspergillus niger, DSMZ1957, 504 h, total conc 2000 ppm, area covered, increments of 5%) | inhibition at 1000 ppm (Chlorella sp. ATCC 7516; 504 h) | inhibition at 10000 ppm ([1]; Aspergillus niger, DSMZ1957, 504 h, total conc 10000 ppm, area covered, increments of 5%)
1 | Cc1ccc(S(=O)(=O)C(I)I)cc1 [DIMTS, Diiodomethyl p-tolyl sulfone] | 95% | 5000 ppm | 2000 ppm | 95% |  | 
2 | O=c1[nH]c2c(c(=O)n1C1CCCCC1)CCC2 [LENACIL, 3-Cyclohexyl-6,7-dihydro-1H-cyclopentapyrimidine-2,4-(3H,5H)-dione] |  |  |  |  | 90% | 0%
